Measurements from patent publication US10837044B2, “Automated method for analyzing and interpreting an antimicrobial susceptibility” (FONDATION MEDITERRANEE INFECTION, priority 2014, dated 2020).

Legend:
[1] = tested on: Escherichia coli; assay: antibiogram by diffusion on Mueller-Hinton agar with antibiotic wafers; assay type: cell-based; conditions: for resistant (I/R) or sensitive (S): Table C2, square dish; for resistance (I, R) or sensitivity (S): Table C1, disk loads of Table B
Method: (§1) The inoculum was prepared by making a suspension of bacteria directly from colonies put into solution in tubes of sterile water so that the solution presented accurate opacity as determined with a spectrophotometer equivalent to the opacity of a 0.5 standard in the McFarland range. This bacterial suspension concentration is standardized since a more concentrated inoculum would lead to smaller diameters for the inhibition zone, and vice versa.
(§2) The inoculum corresponds to concentrations of about 10^8 CFU/mL for Escherichia coli, Klebsiella pneumoniae, Proteus mirabilis, Klebsiella oxytoca, Enterobacter cloacea, Enterobacter aerogenes, Entercoccus faecalis, Pseudomonas aeruginosa, Staphylococcus aureus, and Staphylococcus epidermidis. These are the ten species bacteria that are encountered the most frequently in human pathologies.
(§3) 1.2) The bacterial sample was deposited on a solid culture medium in a petri dish having a diameter of 90 mm or in a square dish having a side of 120 mm, the medium being constituted by a Mueller-Hinton agar specific for (EUCAST) antibiograms. Ideally, it should be used in the 15 minutes (min) following preparation of the suspension.
(§4) Seeding was done by the method of diffusion on an agar medium by flooding in which excess bacterial suspension was added to the Mueller-Hinton agar. After homogenizing, excess liquid was discarded in order to avoid over-inoculating the dishes. It is necessary to wait beforehand for the surface of the agar to be dry in order to eliminate any trace of moisture encouraging bacterial invasion.
(§5) The disks of the antibiotic wafers were deposited within 15 min after inoculating the agar. The antibiotic impregnated disks were deposited using an automatic dispenser that placed the disks firmly on the surface of the inoculated and dried agar. The number of disks deposited per dish was limited because of inhibition zone overlap and in order to limit interference between antibiotics. It is important for the inhibition diameters to be measurable. The antibiograms were then incubated at 37° C. for 18 hours (h) to 24 h.
(§6) The antibiotic wafers were made of high quality absorbent paper with a diameter of 6 mm and they were impregnated with antibiotics at concentrations in the range 1 micrograms (μg) to 300 μg approximately, depending on the antibiotic.
(§7) In the examples below, reference disks were used as sold by the suppliers i2a (Montpellier, France), BD (Becton Dickinson, USA), Bio-Rad (Hercules, USA), Biomerieux (Marcy l′Etoile, France) containing the following antibiotics and carrying the following codes and the following doses: AMX (amoxicillin) 25 μg: AMC (amoxicillin-clavulanic acid) 20 μg-10 μg; GM for gentamicin, 15 μg; SXT (trimethoprim-sulfamethoxazole) 1.25/23.75 μg; TIC (ticarcillin) 75 μg; TCC (ticarcillin-clavulanic acid) […]; TZP (piperacillin-tazobactam) 75/10 μg; CAZ (ceftazidime) 30 μg; IMP or IPM (imipeneme) 10 μg; COL (colistin) 50 μg; FOX (cefoxitine) 30 μg; VAN (vancomycin) 30 μg; TEC (teicoplanin) 30 μg; CLI or DA (clindamycin) 2 μg; CRO (ceftriaxone) 30 μg; CIP (ciprofloxacin) 5 μg; OFX (ofloxacin) 5 μg; CTX (cefotaxime) 5 μg; AN or AK (amikacin) 30 μg; TM (tobramycin) 10 μg; FOX (cefoxitine) 30 μg; ATM (aztreonam) 30 μg; ERT (ertapenem) 10 μg; FF (fosfomycin) 200 μg; DO (doxycycline) 30 μg; K (kanamycin) 1000 μg; L (lincomycin) 15 μs; LNZ (linezolid) 10 μg; AN (nalidixic acid) 30 μg; NOR (norfloxacin) 10 μg; PT (pristinamycin) 15 μg; RA (rifampicin) 5 μg; and E (erythromycin) 15 μg.

[2] = tested on: Klebsiella pneumoniae; assay: as above; assay type: cell-based; conditions: Table C2, sixteen wafers, square dish
Method: as §1, §2, §3, §4, §5, §6, §7

[3] = tested on: Pseudomonas aeruginosa; assay: as above; assay type: cell-based; conditions: Table C1, six wafers, disk loads of Table B
Method: as §1, §2, §3, §4, §5, §6, §7

[4] = tested on: Escherichia coli; conditions: cited from earlier work; for Critical diameters (mm) R> / Critical diameters (mm) S≤: disk load 10 μg, inhibition zone diameter; for Critical diameters (mm) R> / Critical concentrations (mg/L) R>: resistant; for Critical diameters (mm) S≤ / Critical concentrations (mg/L) S≤: sensitive; for Critical concentrations (mg/L) R>: high critical concentration; for Critical concentrations (mg/L) S≤: low critical concentration
[5] = tested on: Entercoccus faecalis; assay: antibiogram by diffusion on Mueller-Hinton agar with antibiotic wafers; assay type: cell-based; conditions: Table C1, six wafers, disk loads of Table B
Method: as §1, §2, §3, §4, §5, §6, §7

[6] = tested on: Staphylococcus aureus; assay: as above; assay type: cell-based; conditions: for resistant (I/R) or sensitive (S): Table C2, sixteen wafers, square dish; for resistance (I, R) or sensitivity (S): Table C1, six wafers, disk loads of Table B
Method: as §1, §2, §3, §4, §5, §6, §7

[7] = tested on: Proteus mirabilis; assay: as above; assay type: cell-based; conditions: Table C1, six wafers, disk loads of Table B
Method: as §1, §2, §3, §4, §5, §6, §7

[8] = tested on: Staphylococcus epidermidis; assay: as above; assay type: cell-based; conditions: Table C1, six wafers, disk loads of Table B
Method: as §1, §2, §3, §4, §5, §6, §7

[9] = E. coli phenotype Cephalosporinase + R to fluoroquinolones + R to cotrimoxazole + partial R to aminosides, sixteen wafers
[10] = E. coli phenotype Hl penicillinase + R to fluoroquinolones + R to cotrimoxazole + partial R to aminosides, sixteen wafers
[11] = E. coli phenotype Wild, sixteen wafers in a rectangular grid
[12] = K. pneumoniae phenotype Cephalosporinase + R to aminosides + R to cotrimoxazole
[13] = P. aeruginosa Abnormal phenotype
[14] = P. aeruginosa phenotype Carbapenemase
[15] = P. aeruginosa phenotype Penicillinase
[16] = P. aeruginosa phenotype Selective imipenem permeability
[17] = S. aureus phenotype R to methicilline, R to aminosides, fluoroquinolones, to rifampicie, to macrolides and the like

CC1(C)S[C@@H]2[C@H](NC(=O)[C@H](C(=O)O)c3ccsc3)C(=O)N2[C@H]1C(=O)O [TIC, ticarcillin]
resistant (I/R) or sensitive (S) [1, 9]: R | resistant (I/R) or sensitive (S) [1, 10]: R | resistant (I/R) or sensitive (S) [1, 11]: S | resistant (I/R) or sensitive (S) [2, 12]: R | resistant (I/R) or sensitive (S) ([2]; K. pneumoniae phenotype Wild): R | resistance (I, R) or sensitivity (S) [3, 13]: R | resistance (I, R) or sensitivity (S) ([3]; P. aeruginosa phenotype BSBL): I/R | resistance (I, R) or sensitivity (S) [3, 14]: R | resistance (I, R) or sensitivity (S) [3, 15]: R | resistance (I, R) or sensitivity (S) [3, 16]: S | resistance (I, R) or sensitivity (S) ([3]; P. aeruginosa phenotype Wild): S

C[C@@H](O)[C@H]1C(=O)N2C(C(=O)O)=C(S[C@@H]3CN[C@H](C(=O)Nc4cccc(C(=O)O)c4)C3)[C@H](C)[C@H]12 [Ertapenem]
Critical diameters (mm) R> [4]: 22 mm | Critical diameters (mm) S≤ [4]: 25 mm | Critical concentrations (mg/L) R> [4]: 1 mg/L | Critical concentrations (mg/L) S≤ [4]: 0.5 mg/L

O=C1CN(/N=C/c2ccc([N+](=O)[O-])o2)C(=O)N1 [FUR, nitrofurantoin]
resistance (I, R) or sensitivity (S) ([5]; E. faecalis phenotype Atypical): S | resistance (I, R) or sensitivity (S) ([5]; E. faecalis phenotype Wild): S | resistant (I/R) or sensitive (S) [6, 17]: R | resistant (I/R) or sensitive (S) ([6]; S. aureus phenotype Wild): S

C[C@@H](O)[C@H]1C(=O)N2C(C(=O)O)=C(S[C@@H]3CN[C@H](CNS(N)(=O)=O)C3)[C@H](C)[C@H]12 [Doripenem]
Critical diameters (mm) R> [4]: 21 mm | Critical diameters (mm) S≤ [4]: 24 mm | Critical concentrations (mg/L) R> [4]: 2 mg/L | Critical concentrations (mg/L) S≤ [4]: 1 mg/L

CC1(C)S[C@@H]2[C@H](NC(=O)[C@H](N)c3ccc(O)cc3)C(=O)N2[C@H]1C(=O)O [AMX, amoxicillin]
resistance (I, R) or sensitivity (S) ([5]; E. faecalis phenotype Atypical): R | resistance (I, R) or sensitivity (S) ([5]; E. faecalis phenotype Wild): S | resistance (I, R) or sensitivity (S) ([7]; P. mirabilis phenotype Hl cephalosporinase): R | resistance (I, R) or sensitivity (S) ([7]; P. mirabilis phenotype Hl penicillinase): R | resistance (I, R) or sensitivity (S) ([7]; P. mirabilis phenotype Inhibitor resistant penicillinase): R | resistance (I, R) or sensitivity (S) ([7]; P. mirabilis phenotype Ll penicillinase): R | resistance (I, R) or sensitivity (S) ([7]; P. mirabilis phenotype Wild): S | synergy zone between two antibiotic wafers placed side by side ([1]; E. coli cephalosporinase phenotype (FIGS. 2D, 2E)): absence of a zone of synergy | synergy zone between two antibiotic wafers placed side by side ([1]; E. coli strain of BSBL phenotype, champagne-cork shaped inhibition zone): presence of a zone of synergy | resistance (I, R) or sensitivity (S) ([1]; E. coli phenotype BSBL, six wafers): R | resistance (I, R) or sensitivity (S) ([1]; E. coli phenotype Carbapenemase, six wafers): R | resistance (I, R) or sensitivity (S) ([1]; E. coli phenotype Hl cephalosporinase, six wafers): R | resistance (I, R) or sensitivity (S) ([1]; E. coli phenotype Hl penicillinase, six wafers): R | resistance (I, R) or sensitivity (S) ([1]; E. coli phenotype Inhibitor resistant penicillinase, six wafers): R | resistance (I, R) or sensitivity (S) ([1]; E. coli phenotype Ll penicillinase, six wafers): R | resistance (I, R) or sensitivity (S) ([1]; E. coli phenotype Wild, six wafers in a circle): S | resistant (I/R) or sensitive (S) [1, 9]: R | resistant (I/R) or sensitive (S) [1, 10]: R | resistant (I/R) or sensitive (S) [1, 11]: S | resistant (I/R) or sensitive (S) [2, 12]: R | resistant (I/R) or sensitive (S) ([2]; K. pneumoniae phenotype Wild): R

CCC[C@@H]1C[C@@H](C(=O)N[C@@H]([C@H]2O[C@H](SC)[C@H](O)[C@@H](O)[C@H]2O)[C@H](C)Cl)N(C)C1 [CLI, clindamycin]
resistance (I, R) or sensitivity (S) ([8]; S. epidermidis phenotype Wild): S | resistance (I, R) or sensitivity (S) ([6]; S. aureus phenotype Wild): S | resistant (I/R) or sensitive (S) [6, 17]: R | resistant (I/R) or sensitive (S) ([6]; S. aureus phenotype Wild): S

CO[C@@]1(NC(=O)Cc2cccs2)C(=O)N2C(C(=O)O)=C(COC(N)=O)CS[C@@H]21 [FOX, cefoxitine]
resistance (I, R) or sensitivity (S) ([8]; S. epidermidis phenotype Methicillin resistant): R | resistance (I, R) or sensitivity (S) ([8]; S. epidermidis phenotype Wild): S | resistant (I/R) or sensitive (S) [1, 9]: S | resistant (I/R) or sensitive (S) [1, 10]: S | resistant (I/R) or sensitive (S) [1, 11]: S | resistant (I/R) or sensitive (S) [2, 12]: S | resistant (I/R) or sensitive (S) ([2]; K. pneumoniae phenotype Wild): S | resistance (I, R) or sensitivity (S) ([6]; S. aureus phenotype Methicillin resistant): R | resistance (I, R) or sensitivity (S) ([6]; S. aureus phenotype Wild): S | resistant (I/R) or sensitive (S) [6, 17]: R | resistant (I/R) or sensitive (S) ([6]; S. aureus phenotype Wild): S

CCC[C@@H]1C[C@@H](C(=O)N[C@@H]([C@H]2O[C@H](SC)[C@H](O)[C@@H](O)[C@H]2O)[C@@H](C)O)N(C)C1 [LIN, lincomycin]
resistance (I, R) or sensitivity (S) ([5]; E. faecalis phenotype Atypical): S | resistance (I, R) or sensitivity (S) ([5]; E. faecalis phenotype Wild): S

C[C@@H](O)[C@H]1C(=O)N2C(C(=O)O)=C(S[C@@H]3CN[C@H](C(=O)N(C)C)C3)[C@H](C)[C@H]12 [Meopenem]
Critical diameters (mm) R> [4]: 16 mm | Critical diameters (mm) S≤ [4]: 22 mm | Critical concentrations (mg/L) R> [4]: 8 mg/L | Critical concentrations (mg/L) S≤ [4]: 2 mg/L

O=C(O)c1cn(C2CC2)c2cc(N3CCNCC3)c(F)cc2c1=O [CIP, ciprofloxacin]
resistant (I/R) or sensitive (S) [1, 9]: R | resistant (I/R) or sensitive (S) [1, 10]: R | resistant (I/R) or sensitive (S) [1, 11]: S | resistant (I/R) or sensitive (S) [2, 12]: R | resistant (I/R) or sensitive (S) ([2]; K. pneumoniae phenotype Wild): S | resistant (I/R) or sensitive (S) [6, 17]: R | resistant (I/R) or sensitive (S) ([6]; S. aureus phenotype Wild): S

CC(C)(O/N=C(\C(=O)N[C@@H]1C(=O)N2C(C(=O)[O-])=C(C[n+]3ccccc3)CS[C@H]12)c1csc(N)n1)C(=O)O [CAZ, ceftazidime]
resistance (I, R) or sensitivity (S) [3, 13]: S | resistance (I, R) or sensitivity (S) ([3]; P. aeruginosa phenotype BSBL): R | resistance (I, R) or sensitivity (S) [3, 14]: R | resistance (I, R) or sensitivity (S) [3, 15]: S | resistance (I, R) or sensitivity (S) [3, 16]: S | resistance (I, R) or sensitivity (S) ([3]; P. aeruginosa phenotype Wild): S
